molecular target: T1, Mitogen-activated protein kinase kinase kinase 7 (Homo sapiens, UniProt O43318); assay: Inhibition of TAK1 (unknown origin)
T1 sequence (O43318 whole entry): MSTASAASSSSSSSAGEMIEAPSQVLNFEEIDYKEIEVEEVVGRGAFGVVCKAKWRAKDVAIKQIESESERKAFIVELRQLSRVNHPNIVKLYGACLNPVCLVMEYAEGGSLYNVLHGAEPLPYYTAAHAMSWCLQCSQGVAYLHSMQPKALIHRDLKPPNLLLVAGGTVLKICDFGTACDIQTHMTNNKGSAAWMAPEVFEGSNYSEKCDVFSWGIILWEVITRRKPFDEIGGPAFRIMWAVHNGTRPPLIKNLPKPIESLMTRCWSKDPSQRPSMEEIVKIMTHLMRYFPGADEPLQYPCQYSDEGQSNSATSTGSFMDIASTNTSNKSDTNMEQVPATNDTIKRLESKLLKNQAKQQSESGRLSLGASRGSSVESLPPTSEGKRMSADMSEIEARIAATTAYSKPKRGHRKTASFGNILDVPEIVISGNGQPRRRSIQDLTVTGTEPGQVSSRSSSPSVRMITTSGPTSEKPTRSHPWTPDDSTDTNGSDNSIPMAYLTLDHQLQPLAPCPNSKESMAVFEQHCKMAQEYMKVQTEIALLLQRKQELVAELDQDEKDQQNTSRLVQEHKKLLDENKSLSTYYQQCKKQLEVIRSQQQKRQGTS

| SMILES | IC50 [µM] |
| --- | --- |
| COc1cc(O)c2c(c1)/C=C/C[C@H](O)[C@H](O)C(=O)CCC[C@H](C)OC2=O | 2.6 |
| COc1cc(O)cc2c1C(=O)O[C@@H](C)CCCCC/C=C/C(=O)C2 | > 30 |
| COc1cc(O)c2c(c1)/C=C/C[C@@H]1OC(CC(=O)[C@H]1O)C[C@H](C)OC2=O | > 30 |
| COc1cc(O)c2c(c1)[C@H]1O[C@@H]1C[C@H](O)[C@H](O)C(=O)CCC[C@H](C)OC2=O | > 30 |
| C/C=C/C=C\C(=O)[C@@H](O)[C@@H](O)C/C=C/c1cc(OC)cc(OC)c1C(=O)OC | > 30 |
